Earlier results in PubChem BioAssay AID1259409 (Chemical Carcinogenesis Research Information System (CCRIS), 2018).

Test system: rodent chemically induced tumor inhibition, incidence and multiplicity
Assay: CCRIS tumor inhibitor studies

NCCCC(N)(C(=O)O)C(F)F (centres undefined)
tumour outcome (control, treated, inhibition, significance) (Carcinogen: N-ETHYL-N-NITROSOUREA, 759-73-9, Dose [Inhibitor]: 0, 500 MG/KG DIET FOR DURATION OF STUDY BEGINNING POST CARCINOGEN DOSE (STUDY DURATION: 35 WK), Route [Inhibitor]: ORAL, Species: MOUSE, Strain/Sex: PIM/MALE, Target Tissue: Type of Lesion: LYMPHATIC SYSTEM: LYMPHOMA, Dose [Carcinogen]: 50 MG/KG BW ONCE, Promoter: NONE USED): 21/40 (53%), 9/28 (32%), 40%, not significant
tumour outcome (control, treated, inhibition, significance) (Carcinogen: N-ETHYL-N-NITROSOUREA, 759-73-9, Dose [Inhibitor]: 0, 1000 MG/KG DIET FOR DURATION OF STUDY BEGINNING POST CARCINOGEN DOSE (STUDY DURATION: 35 WK), Route [Inhibitor]: ORAL, Species: MOUSE, Strain/Sex: PIM/MALE, Target Tissue: Type of Lesion: LYMPHATIC SYSTEM: LYMPHOMA, Dose [Carcinogen]: 50 MG/KG BW ONCE, Promoter: NONE USED): 21/40 (53%), 16/40 (40%), 26%, not significant
tumour outcome (control, treated, inhibition, significance) (Carcinogen: N-METHYL-N'-NITRO-N-NITROSOGUANIDINE, 70-25-7, Dose [Inhibitor]: 0, 0.5% IN DRINKING WATER ADMINISTERED CONCURRENTLY WITH CARCINOGEN FOR 35 WK (STUDY DURATION: 85 WK), Route [Inhibitor]: ORAL, Species: RAT, Strain/Sex: WISTAR/MALE, Target Tissue: Type of Lesion: DUODENUM: TUMOR, Dose [Carcinogen]: 2.5 MG IN DRINKING WATER FOR 35 WK, Promoter: NONE USED): 4/22 (18%), 9/25 (36%), -100%, not significant
tumour outcome (control, treated, inhibition, significance) (Carcinogen: N-METHYL-N'-NITRO-N-NITROSOGUANIDINE, 70-25-7, Dose [Inhibitor]: 0, 0.5% IN DRINKING WATER ADMINISTERED CONCURRENTLY WITH CARCINOGEN FOR 35 WK (STUDY DURATION: 85 WK), Route [Inhibitor]: ORAL, Species: RAT, Strain/Sex: WISTAR/MALE, Target Tissue: Type of Lesion: STOMACH: ADENOCARCINOMA, Dose [Carcinogen]: 2.5 MG IN DRINKING WATER FOR 35 WK, Promoter: NONE USED): 12/22 (55%), 3/25 (12%), 78%, p<0.005
tumour outcome (control, treated, inhibition, significance) (Carcinogen: N-METHYL-N'-NITRO-N-NITROSOGUANIDINE, 70-25-7, Dose [Inhibitor]: 0, 0.5% IN DRINKING WATER ADMINISTERED CONCURRENTLY WITH CARCINOGEN FOR 35 WK (STUDY DURATION: 85 WK), Route [Inhibitor]: ORAL, Species: RAT, Strain/Sex: WISTAR/MALE, Target Tissue: Type of Lesion: STOMACH: ADENOMA, Dose [Carcinogen]: 2.5 MG IN DRINKING WATER FOR 35 WK, Promoter: NONE USED): 5/22 (23%), 4/25 (16%), 30%, not significant
tumour outcome (control, treated, inhibition, significance) (Carcinogen: N-METHYL-N'-NITRO-N-NITROSOGUANIDINE, 70-25-7, Dose [Inhibitor]: 0, 0.5% IN DRINKING WATER ADMINISTERED CONCURRENTLY WITH CARCINOGEN FOR 35 WK (STUDY DURATION: 85 WK), Route [Inhibitor]: ORAL, Species: RAT, Strain/Sex: WISTAR/MALE, Target Tissue: Type of Lesion: STOMACH: SARCOMA, Dose [Carcinogen]: 2.5 MG IN DRINKING WATER FOR 35 WK, Promoter: NONE USED): 2/22 (9%), 0/25 (0%), 100%, not significant
tumour outcome (control, treated, inhibition, significance) (Carcinogen: N-METHYL-N'-NITRO-N-NITROSOGUANIDINE, 70-25-7, Dose [Inhibitor]: 0, 1% IN DRINKING WATER ADMINISTERED CONCURRENTLY WITH CARCINOGEN FOR 35 WK (STUDY DURATION: 85 WK), Route [Inhibitor]: ORAL, Species: RAT, Strain/Sex: WISTAR/MALE, Target Tissue: Type of Lesion: DUODENUM: TUMOR, Dose [Carcinogen]: 2.5 MG IN DRINKING WATER FOR 35 WK, Promoter: NONE USED): 4/22 (18%), 9/25 (36%), -100%, not significant
tumour outcome (control, treated, inhibition, significance) (Carcinogen: N-METHYL-N'-NITRO-N-NITROSOGUANIDINE, 70-25-7, Dose [Inhibitor]: 0, 1% IN DRINKING WATER ADMINISTERED CONCURRENTLY WITH CARCINOGEN FOR 35 WK (STUDY DURATION: 85 WK), Route [Inhibitor]: ORAL, Species: RAT, Strain/Sex: WISTAR/MALE, Target Tissue: Type of Lesion: STOMACH: ADENOCARCINOMA, Dose [Carcinogen]: 2.5 MG IN DRINKING WATER FOR 35 WK, Promoter: NONE USED): 12/22 (55%), 5/25 (20%), 64%, p<0.05
tumour outcome (control, treated, inhibition, significance) (Carcinogen: N-METHYL-N'-NITRO-N-NITROSOGUANIDINE, 70-25-7, Dose [Inhibitor]: 0, 1% IN DRINKING WATER ADMINISTERED CONCURRENTLY WITH CARCINOGEN FOR 35 WK (STUDY DURATION: 85 WK), Route [Inhibitor]: ORAL, Species: RAT, Strain/Sex: WISTAR/MALE, Target Tissue: Type of Lesion: STOMACH: ADENOMA, Dose [Carcinogen]: 2.5 MG IN DRINKING WATER FOR 35 WK, Promoter: NONE USED): 5/22 (23%), 3/25 (12%), 48%, not significant
tumour outcome (control, treated, inhibition, significance) (Carcinogen: N-METHYL-N'-NITRO-N-NITROSOGUANIDINE, 70-25-7, Dose [Inhibitor]: 0, 1% IN DRINKING WATER ADMINISTERED CONCURRENTLY WITH CARCINOGEN FOR 35 WK (STUDY DURATION: 85 WK), Route [Inhibitor]: ORAL, Species: RAT, Strain/Sex: WISTAR/MALE, Target Tissue: Type of Lesion: STOMACH: SARCOMA, Dose [Carcinogen]: 2.5 MG IN DRINKING WATER FOR 35 WK, Promoter: NONE USED): 2/22 (9%), 3/25 (12%), -33%, not significant
tumour outcome (control, treated, inhibition, significance) (Carcinogen: N-METHYL-N-BENZYLNITROSAMINE, 937-40-6, Dose [Inhibitor]: 0, 1% IN DEIONIZED WATER WITH ZINC-DEFICIENT DIET FOR 15 WK STARTING 1 HR POST CARCINOGEN TREATMENT (STUDY DURATION: 20, Route [Inhibitor]: ORAL, Species: RAT, Strain/Sex: SPRAGUE-DAWLEY/MALE, Target Tissue: Type of Lesion: ESOPHAGUS: TUMOR, Dose [Carcinogen]: 2 MG/KG BW ONCE ADMINISTERED AFTER 5 WK OF ZINC-DEFICIENT DIET TREATMENT): 89% (8/9), 10% (2/20), 89%, p<0.0001
tumour outcome (control, treated, inhibition, significance) (Carcinogen: N-METHYL-N-NITROSOUREA, 684-93-5, Dose [Inhibitor]: 0, 0.5 IN 2% NORMAL URINE INTO HETEROTOPICALLY TRANSPLANTED BLADDER 2/WK FOR 22 WK BEGINNING 1 WK POST CARCINOGEN (STUDY, Route [Inhibitor]: INJECTION, Species: RAT, Strain/Sex: F344/MALE, Target Tissue: Type of Lesion: BLADDER: TRANSITIONAL CELL CARCINOMA, Dose [Carcinogen]: 0.25 MG IN 0.9% SALINE 1/WK FOR 3 WK INTO BLADDER 4 WK AFTER HETEROTOPIC TRANSPLANT INTO GLUTEAL MUSCLE): 31/38 (82%), 5/37 (16%), 80%, p<0.001
tumour outcome (control, treated, inhibition, significance) (Carcinogen: N-METHYL-N-NITROSOUREA, 684-93-5, Dose [Inhibitor]: 0, 0.5 IN 2% NORMAL URINE INTO HETEROTOPICALLY TRANSPLANTED BLADDER 2/WK FOR 29 WK BEGINNING 1 WK POST CARCINOGEN (STUDY, Route [Inhibitor]: INJECTION, Species: RAT, Strain/Sex: F344/MALE, Target Tissue: Type of Lesion: BLADDER: TRANSITIONAL CELL CARCINOMA, Dose [Carcinogen]: 0.25 MG IN 0.9% SALINE ONCE INTO BLADDER 4 WK AFTER HETEROTOPIC TRANSPLANT INTO GLUTEAL MUSCLE): 15/35 (43%), 3/34 (9%), 79%, p<0.005
tumour outcome (control, treated, inhibition, significance) (Carcinogen: N-METHYL-N-NITROSOUREA, 684-93-5, Dose [Inhibitor]: 0.5 ML OF 2% AGENT IN 0.9% SALINE SOLUTION TWICE IN WK 1 THEN ONCE 2 HR POST CARCINOGEN DOSE THEN TWICE IN WEEK 2 (STUDY, Route [Inhibitor]: INTRAVESICAL, Species: RAT, Strain/Sex: F344/MALE, Target Tissue: Type of Lesion: BLADDER: CARCINOMA, Dose [Carcinogen]: 0.25 MG IN 0.5 ML OF 0.9% SALINE SOLUTION ONCE, Promoter: URINE): 25/36 (69%), 25/37 (68%), 1%, not calculated
